Entries after “also recorded” stand apart in the source; their conditions may differ.
Experiments:
Pseudomonas aeruginosa = experiment: Tests of bacterial colonization resistance; type: in vivo; settings: intestinal mucosa of test animals, different concentrations
Procedure: Pseudomonas aeruginosa is used in the tests of bacterial colonization resistance of the compound of formula (I). The intestinal mucosa of test animals that were pre-administrated with Pseudomonas aeruginosus and were treated by the compound of formula (I) with different concentrations was detected by in situ colonization, qualitative and quantitative methods.

[1] = system: patients with symptoms of microecological imbalance; experiment: Clinical trial, effects for regulating mucocutaneous microecology; type: in vivo, human
Description: (§1) 56 patients with symptoms of microecological imbalance, including 20 patients with oral complaints, such as halitosis, oral infections caused by clinically unknown pathogenic bacteria, 20 patients with subaxilary complaints, such as slimy sensation or bromidrosis, and 16 patients with low […] of gynecological genitourinary tract caused by unknown source of infectious pathogen, were separately treated by mouthwash or topical sprinkle of 1% N-acetyl-D-glucosamine aqueous solution twice daily for 7 days. […] Observation of effects of N-acetyl-D-glucosamine for regulating mucocutaneous microecology

[2] = in vivo
Description: • 1. Acute toxicity test: including tests of administrating medicine orally, intravenous injection and maximum limit amount for administration; • 2. Ames test; • 3. Micronucleus test of bone marrow cell of small mouse; • 4. Abnormal sexual test for the sperm of mouse; • 5. Abnormal aberrance test for the chromosin of mouse's testis; • 6. Chronic lethal test; • 7. Subchronic toxicity (feed for 90 days) test; • 8. Traditional deformity-inducing test;

[3] = system: flora of mucocutaneous microecology; experiment: Clinical trial, detection of flora of mucocutaneous microecology (detection rates of various bacteria); type: in vivo, human
Description: as §1, with “Detection results” for “Observation”, “flora” for “effects”, “of” for “of N-acetyl-D-glucosamine for regulating”, “microecology regulated by N-acetyl-D-glucosamine (detection rates of various bacteria)” for “microecology”

Proteus Mirabilis = experiment: Promoting wave test (bio-wave model); type: cell-based
Description: 1.1 Samples: Pure Compound of Formula (I)
• Strain: Proteus Mirabilis (which should comply with the following biological reaction characteristics: dynamics (+), urease (+), lactose (−), glucose (+), H2S (−), phenylalanine deaminase (+). • Culture medium: modified LB culture medium (the component of the composition are: 1% trytones, 0.5% yeast extract, 1% sodium chloride, 0.1% glucose, 0.002% TTC, and pH=7.2˜7.4). 1.3 Experimental Method:
The experiment adopted a bio-wave model for studying the promoting wave function of the compound of formula (I).

[4] = Microecological imbalance of gynecological genitourinary tract, 16 cases
[5] = Subaxillary slimy sensation, 10 cases

CC(=O)N[C@@H]1[C@@H](O)[C@H](O)[C@@H](CO)O[C@H]1O [N-acetyl-D-glucosamine]
colonization resistance against Pseudomonas aeruginosa (Pseudomonas aeruginosa): increased with the increase of its concentration | total effective rate ([1]; 56 patients, 1% aqueous solution mouthwash or topical sprinkle twice daily for 7 days): 87.8% | Cured ([1]; Bromidrosis, 10 cases): 5 | Effective ([1]; Bromidrosis, 10 cases): 3 | Effective rate (%) ([1]; Bromidrosis, 10 cases): 80% | Ineffective ([1]; Bromidrosis, 10 cases): 2 | Cured [1, 4]: 7 | Effective [1, 4]: 6 | Effective rate (%) [1, 4]: 81.3% | Ineffective [1, 4]: 3 | Cured ([1]; Oral compliant, 20 cases): 8 | Effective ([1]; Oral compliant, 20 cases): 10 | Effective rate (%) ([1]; Oral compliant, 20 cases): 90% | Ineffective ([1]; Oral compliant, 20 cases): 2 | Cured [1, 5]: 7 | Effective [1, 5]: 3 | Effective rate (%) [1, 5]: 100% | Ineffective [1, 5]: 0 | acute test dosage relative to the injection dosage for human being [2]: 300 times | dosage at which the acute toxicosis reaction had not appeared [2]: more than 2 g/kg | maximum dosage with no intoxication reaction ([2]; 4 weeks): 1 g/kg | detection rate of helicoids ([3]; Buccal cavity (salivary bacteria), after regulation, before regulation 12): helicoids (0) | detection rate of corynebacterium diphtheroides ([3]; Buccal cavity (salivary bacteria), after regulation, before regulation 18): diphtheroides (8), | detection rate of Streptococcus mutans ([3]; Buccal cavity (salivary bacteria), after regulation, before regulation 23): (7), streptococcus | detection rate of streptococcus salivarius ([3]; Buccal cavity (salivary bacteria), after regulation, before regulation 40): salivarius (90), | detection rate of Neisser's coccus ([3]; Buccal cavity (salivary bacteria), after regulation, before regulation 50): (95), corynebacterium | detection rate of bacteroides ([3]; Buccal cavity (salivary bacteria), after regulation, before regulation 60): bacteroides (30), | detection rate of aerobic coryneform bacteria ([3]; Skin of axillary fossa, after regulation, before regulation 18): bacteria (12), pityro- | detection rate of Staphylococci ([3]; Skin of axillary fossa, after regulation, before regulation 20): Staphylococci (36), | detection rate of pityrosporum furfur ([3]; Skin of axillary fossa, after regulation, before regulation 24): sporum furfur (15), | detection rate of bacillus polymyxa odour ([3]; Skin of axillary fossa, after regulation, before regulation 40): odour (9) | detection rate of bacillus acidi lactici ([3]; Woman's genitourinary tract, after regulation, before regulation 18): acidi lactici (60), | detection rate of bacillus coli ([3]; Woman's genitourinary tract, after regulation, before regulation 29): bacillus coli (10) | detection rate of Staphylococcus epidermidis ([3]; Woman's genitourinary tract, after regulation, before regulation 38): midis (35), bacillus | change of flora after use ([3]; buccal cavity, skin of axillary fossa and woman's genitourinary tract): autochthonous flora increased and allochthonous flora decreased | promoting wave function (Proteus Mirabilis): many fine waves on each ring emerged; also recorded: has promoting function to bio-waves
